Reference: PubChem BioAssay (NCI)
Where “and” joins values, the source holds several entries; their conditions need not be identical. Identical values can stand only once.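 Following 48 hours of exposure in 96-well plates, responses at five concentrations were used to interpolate endpoints linearly. At the GI50, growth is halved. Definition used: TGI = concentration required for complete inhibition of growth.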

Legend:
Assay in all cases: NCI-60 cell line screen, 48 h
NCI-H226 lung = system: NCI-H226 lung
SF-539 CNS = system: SF-539 CNS
SK-OV-3 ovarian = system: SK-OV-3 ovarian
MALME-3M melanoma = system: MALME-3M melanoma
HCC-2998 colon = system: HCC-2998 colon
OVCAR-5 ovarian = system: OVCAR-5 ovarian
A549 NSCLC = system: A549 NSCLC
UACC-62 melanoma = system: UACC-62 melanoma
KM12 colon = system: KM12 colon
SN12C renal = system: SN12C renal

Structure (SMILES)	TGI (NCI-H226 lung)	TGI (SF-539 CNS)	TGI (SK-OV-3 ovarian)	TGI (MALME-3M melanoma)	TGI (HCC-2998 colon)	TGI (OVCAR-5 ovarian)	TGI (A549 NSCLC)	TGI (UACC-62 melanoma)	TGI (KM12 colon)	TGI (SN12C renal)	GI50 (NCI-H226 lung)	GI50 (SF-539 CNS)	GI50 (SK-OV-3 ovarian)	GI50 (MALME-3M melanoma)	GI50 (HCC-2998 colon)	GI50 (OVCAR-5 ovarian)	GI50 (A549 NSCLC)	GI50 (UACC-62 melanoma)	GI50 (KM12 colon)	GI50 (SN12C renal)
N#Cc1c(-c2ccco2)cc(-c2ccccc2)[nH]c1=O	> 100 µM	> 100 µM	> 100 µM	> 100 µM	> 100 µM	> 100 µM	> 100 µM	> 100 µM	> 100 µM	> 100 µM	–	–	–	–	–	–	–	–	–	–
Cc1ccc(C)c(N2C(=O)C(=O)C(c3nc4ccccc4s3)C(=Nc3cccc4c(=O)[nH][nH]c(=O)c34)C2=O)c1 (stereo not given)	> 100 µM	> 100 µM	> 100 µM	> 100 µM	> 100 µM	> 100 µM	> 100 µM	> 100 µM	> 100 µM	> 100 µM	–	–	–	–	–	–	–	–	–	–
COc1ccc(Nc2nccc(N3CCN(c4c5ccc(Cl)cc5nc5ccc(OC)cc45)CC3)n2)cc1	> 100 µM	> 100 µM	> 100 µM	> 100 µM	> 100 µM	> 100 µM	> 100 µM	> 100 µM	> 100 µM	> 100 µM	29.7 µM	22.7 µM	53.1 µM	92 µM	23.5 µM	> 100 µM	7.51 µM	16.8 µM	6.96 µM	6.06 µM
COc1ccccc1NC(=O)/C(=C/c1ccccc1)C(C)=O	> 100 µM	62 µM	> 100 µM	> 100 µM	> 100 µM	> 100 µM	> 100 µM	> 100 µM	> 100 µM	> 100 µM	–	–	–	–	–	–	–	–	–	–
COc1cc2nc(-c3ccc(C(F)(F)F)cc3)cc(OCCCN3CCCC3)c2cc1OC	10.6 µM	12.6 µM	> 53.4 µM	5.59 µM	10 µM	18.9 µM	> 42.7 µM	6.6 µM	30.1 µM	> 42.7 µM	0.737 µM	2.56 µM	6.65 µM	1.66 µM	2.07 µM	0.803 µM	0.685 µM	1.57 µM	1.73 µM	0.558 µM
Cc1ccccc1/C=C/C(=O)c1ccccc1	36.7 µM	28.7 µM	67.3 µM	35 µM	34.5 µM	30.9 µM	65.1 µM	38 µM	48.6 µM	> 10 µM	–	–	–	–	–	–	–	–	–	–
O=C1/C(=C/c2ccc([N+](=O)[O-])cc2)COc2ccc(O)cc21	72.4 µM	18.3 µM	> 100 µM	75.2 µM	3.21 µM	33.2 µM	> 100 µM	34.5 µM	5.25 µM	6.85 µM	15.3 µM	4.42 µM	> 100 µM	13.9 µM	1.74 µM	5.97 µM	78 µM	9.02 µM	2.15 µM	2.22 µM
CC(C)(C)OC(=O)NC1CCCC1=O (stereo not given)	> 100 µM	> 100 µM	> 100 µM	> 100 µM	> 100 µM	> 100 µM	> 100 µM	> 100 µM	> 100 µM	> 100 µM	–	–	–	–	–	–	–	–	–	–
CC1OC(c2ccc3c(c2O)C(=O)C2=C(C3=O)C3(O)C(=O)CC(C)(O)CC3(O)C=C2)CC(O)C1O (stereo not given)	49.8 µM	35.6 µM	> 100 µM	12.8 µM	31.7 µM	31.8 µM	> 73.5 µM	30.4 µM	> 60.6 µM	28.2 µM	–	–	–	–	–	–	–	–	–	–
Cc1ccc(NC(=O)/C(Cc2cc(=O)oc3cc(O)ccc23)=N\NC(=O)C[N+](C)(C)C)cc1C	> 100 µM	> 100 µM	> 100 µM	> 100 µM	> 100 µM	> 100 µM	> 100 µM	> 100 µM	> 100 µM	> 100 µM	–	–	–	–	–	–	–	–	–	–
CCN(CC)c1ccc(/C=C/C2=[N+](C)c3ccccc3C2(C)C)c(C)c1	1.69 µM	7 µM	0.21 µM	1.09 µM	5.27 µM	16.8 µM	14.1 µM	2.14 µM	1.36 µM	1.24 µM	0.0444 µM	0.0939 µM	0.0546 µM	0.155 µM	0.102 µM	0.128 µM	0.0964 µM	0.0998 µM	0.0491 µM	0.0738 µM
CC(C)(C)NCC(COc1ccc([N+](=O)[O-])cc1)OP(c1ccccc1)c1ccccc1 (stereo not given)	94.7 µM	> 100 µM	> 100 µM	67 µM	> 100 µM	> 100 µM	> 100 µM	> 100 µM	> 100 µM	> 100 µM	–	–	–	–	–	–	–	–	–	–
O=C(c1cccs1)C1NO[N+]([O-])=C1c1cccs1 (stereo not given)	> 35.2 µM	3.39 µM	32.8 µM	1.19 µM	31.7 µM	20.4 µM	34.4 µM	24.8 µM	12.1 µM	21.8 µM	9.9 µM	1.86 µM	18.6 µM	0.517 µM	17.2 µM	7.62 µM	9.89 µM	12.1 µM	3.33 µM	9.49 µM
CC(=O)[CH-]C(=O)c1ccccc1.CC(=O)[CH-]C(=O)c1ccccc1.CC1(C)OCC(C2OC3OC(C)(C)OC3C2[O-])O1.CC[O-].[Ti+4] (stereo not given)	30.1 µM	27.4 µM	61.1 µM	27.7 µM	29.9 µM	31.5 µM	40 µM	28.8 µM	26.8 µM	33.1 µM	15.2 µM	13.3 µM	21.9 µM	13.4 µM	15.4 µM	14.2 µM	16.6 µM	14.2 µM	11.4 µM	15.6 µM
CCOc1ccc(Nc2c3ccccc3nc3ccccc23)cc1	3.83 µM and 4.06 µM	11.8 µM and 10.2 µM	6.06 µM and 7.73 µM	4.1 µM and 3.45 µM	2.78 µM and 0.65 µM	18.3 µM and 13.2 µM	9.63 µM and 12.5 µM	4.25 µM and 1.3 µM	9.39 µM and 4.52 µM	14.5 µM and 9.76 µM	1.33 µM and 1.29 µM	0.51 µM and 0.419 µM	0.501 µM and 0.323 µM	0.806 µM and 0.468 µM	0.816 µM	1.91 µM and 0.514 µM	0.734 µM and 0.887 µM	0.506 µM and 0.216 µM	0.581 µM and 0.487 µM	1.08 µM and 1 µM
